Test results taken from BindingDB's records for PubMed 11408556 (Astrazeneca Pharmaceuticals, 2001).
pKi: −log10 of the molar value. “And” between values parts separate entries of the source, which are not always exact repeats. Equal entries are not always repeated.

Target: Substance-P receptor (Homo sapiens, UniProt P25103)
Sequence (P25103 whole entry): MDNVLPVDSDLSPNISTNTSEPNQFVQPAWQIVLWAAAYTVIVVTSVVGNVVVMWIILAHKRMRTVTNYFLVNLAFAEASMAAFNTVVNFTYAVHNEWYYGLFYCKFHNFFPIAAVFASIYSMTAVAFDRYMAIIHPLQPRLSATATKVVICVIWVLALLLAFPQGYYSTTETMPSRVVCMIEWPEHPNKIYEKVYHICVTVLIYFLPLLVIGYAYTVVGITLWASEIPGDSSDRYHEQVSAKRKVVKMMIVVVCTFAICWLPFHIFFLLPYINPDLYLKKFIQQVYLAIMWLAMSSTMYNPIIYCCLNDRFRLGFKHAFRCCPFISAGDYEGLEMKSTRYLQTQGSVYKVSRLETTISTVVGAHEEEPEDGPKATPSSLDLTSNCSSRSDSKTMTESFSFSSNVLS

pKi: 9.21 and 9.92
SMILES: CN(C[C@@H](CCN1CCC(c2ccccc2[S+](C)[O-])CC1)c1ccc(Cl)c(Cl)c1)C(=O)c1cc(C#N)cc2ccccc12 (stereo partly specified)
